Measured values published in US9133183B2, “Imidazolidinones and analogs exhibiting anti-cancer and anti-proliferative activities” (Deciphera Pharmaceuticals, LLC, priority 2013, dated 2015).
Like-named read-outs stand apart in the source and are kept apart here.

Legend:
[1] = molecular target: unphosphorylated PDGFRβ kinase (uPDGFRβ, Seq. ID No. 3) (Homo sapiens (Human), UniProt P09619); assay: Unphosphorylated PDGFRβ kinase assay (coupled pyruvate kinase/lactate dehydrogenase); assay type: biochemical; conditions: enzymatic assay, ATP 500 μM
Chain of unphosphorylated PDGFRβ kinase (uPDGFRβ, Seq. ID No. 3) (P09619 557-1106): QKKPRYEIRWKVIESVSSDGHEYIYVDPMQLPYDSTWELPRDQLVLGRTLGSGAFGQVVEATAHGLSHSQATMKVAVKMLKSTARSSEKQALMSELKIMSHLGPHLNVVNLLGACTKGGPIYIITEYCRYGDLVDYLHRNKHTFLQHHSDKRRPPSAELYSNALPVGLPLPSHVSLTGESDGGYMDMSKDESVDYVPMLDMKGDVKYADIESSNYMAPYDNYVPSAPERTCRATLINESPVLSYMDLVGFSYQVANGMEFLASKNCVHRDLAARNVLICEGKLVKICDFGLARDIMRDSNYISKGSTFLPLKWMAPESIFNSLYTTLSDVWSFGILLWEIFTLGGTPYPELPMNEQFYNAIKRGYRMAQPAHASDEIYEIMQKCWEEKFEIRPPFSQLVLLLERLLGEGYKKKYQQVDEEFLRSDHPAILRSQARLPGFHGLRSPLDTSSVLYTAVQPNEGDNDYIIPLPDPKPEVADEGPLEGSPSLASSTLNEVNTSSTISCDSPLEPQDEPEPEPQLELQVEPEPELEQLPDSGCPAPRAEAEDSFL
Outline: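 Construct residues 557-1106, unphosphorylated, 15.7 nM, with poly E4Y 2.5 mg/mL and 500 μM ATP, Tris pH 7.5, 1% DMSO, 30 °C. ADP coupled to NADH oxidation via PK/LDH, A340 followed 4 h; rate from 1.5-2.5 h versus no-compound control, IC50 from percent-inhibition series.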

[2] = test system: M-NFS-60 cells; assay: M-NFS-60 cell proliferation assay (resazurin); assay type: cell-based; conditions: 67 h incubation
Outline: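 Cells kept in medium containing 20 ng/mL mouse recombinant M-CSF. Fluorescence was read at ex 540/em 600 nm, and IC50 was fitted from percent inhibition across a range of inhibitor concentrations.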

[3] = test system: osteoclast precursors; assay: Osteoclast tartrate-resistant acid phosphatase assay; assay type: cell-based; conditions: Osteoclast, 7-14 days, RANKL and M-CSF
[4] = molecular target: c-FMS kinase in THP-1 cells (Homo sapiens (Human), UniProt P07333); assay: Phospho-FMS ELISA assay in THP-1 cells; assay type: cell-based
Chain of c-FMS kinase in THP-1 cells (P07333 20-972): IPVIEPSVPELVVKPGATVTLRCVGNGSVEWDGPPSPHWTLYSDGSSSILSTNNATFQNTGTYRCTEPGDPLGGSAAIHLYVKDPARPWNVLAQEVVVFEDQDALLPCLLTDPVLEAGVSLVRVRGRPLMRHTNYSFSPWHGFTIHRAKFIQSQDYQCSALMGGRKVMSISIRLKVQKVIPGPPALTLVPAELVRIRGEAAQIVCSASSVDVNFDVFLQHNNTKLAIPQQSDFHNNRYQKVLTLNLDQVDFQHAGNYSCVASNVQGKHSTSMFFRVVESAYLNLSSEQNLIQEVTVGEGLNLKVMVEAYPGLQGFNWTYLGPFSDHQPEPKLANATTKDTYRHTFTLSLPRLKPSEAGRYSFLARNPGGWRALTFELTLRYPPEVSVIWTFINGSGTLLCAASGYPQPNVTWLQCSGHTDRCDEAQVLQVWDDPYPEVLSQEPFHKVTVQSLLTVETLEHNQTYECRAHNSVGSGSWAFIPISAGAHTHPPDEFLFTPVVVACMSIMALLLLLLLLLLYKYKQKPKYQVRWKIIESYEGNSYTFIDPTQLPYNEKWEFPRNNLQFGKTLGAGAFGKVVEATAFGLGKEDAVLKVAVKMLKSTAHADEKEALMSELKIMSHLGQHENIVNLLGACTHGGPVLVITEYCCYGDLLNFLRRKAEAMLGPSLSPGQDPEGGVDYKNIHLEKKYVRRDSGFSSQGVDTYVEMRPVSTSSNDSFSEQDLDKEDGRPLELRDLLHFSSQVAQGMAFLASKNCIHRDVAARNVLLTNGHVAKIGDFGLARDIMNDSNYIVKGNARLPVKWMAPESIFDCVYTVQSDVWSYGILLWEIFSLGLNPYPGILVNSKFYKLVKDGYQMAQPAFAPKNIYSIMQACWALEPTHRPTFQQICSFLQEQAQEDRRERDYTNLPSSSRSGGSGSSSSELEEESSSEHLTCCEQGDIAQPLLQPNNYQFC
Method: THP-1 cells (catalog #TIB-202) were obtained from the ATCC. Briefly, cells were grown in RPMI 1640 supplemented with 10% characterized fetal bovine serum, 1% sodium pyruvate, 1% Penicillin-Streptomycin-Glutamine (PSG) and 55 uM 2-mercaptoethanol (Invitrogen, Carlsbad, Calif.) at 37 degrees Celsius, 5% CO2, 95% humidity. Cells were allowed to expand until reaching 70-95% confluency at which point they were subcultured or harvested for assay use.
A serial dilution of test compound was diluted 1:100 in assay medium (RPMI 1640 supplemented with 10% characterized fetal bovine serum) in a 96 well black clear bottom plate (Corning, Corning, N.Y.). In a separate 96 well black clear bottom plate, one hundred and fifty thousand THP-1 cells were added per well in 100 μL in assay medium. Fifty microliters of diluted compound was then added to the cells. Plates were incubated for 4 hours at 37 degrees Celsius, 5% CO2, 95% humidity. At the end of the incubation period, cells were stimulated with 50 μL of a 100 nM solution of recombinant human M-CSF (catalog #216-MC, R & D Systems, Minneapolis, Minn.) in assay medium and the plate was incubated for 5 minutes at 37 degrees Celsius, 5% CO2, 95% humidity. Lysates were prepared and used to perform the phospho-FMS ELISA as described by the manufacturer (catalog #DYC3268, R & D Systems, Minneapolis, Minn.). GraphPad Prism was used to calculate IC50 values obtained from data generated from the ELISA assay.

[5] = molecular target: unphosphorylated c-FMS kinase (uFMS, Seq. ID no. 1) (Homo sapiens (Human), UniProt P07333); assay: uFMS kinase assay (ADP production coupled to pyruvate kinase/lactate dehydrogenase); assay type: biochemical
Chain of unphosphorylated c-FMS kinase (uFMS, Seq. ID no. 1) (P07333 538-972): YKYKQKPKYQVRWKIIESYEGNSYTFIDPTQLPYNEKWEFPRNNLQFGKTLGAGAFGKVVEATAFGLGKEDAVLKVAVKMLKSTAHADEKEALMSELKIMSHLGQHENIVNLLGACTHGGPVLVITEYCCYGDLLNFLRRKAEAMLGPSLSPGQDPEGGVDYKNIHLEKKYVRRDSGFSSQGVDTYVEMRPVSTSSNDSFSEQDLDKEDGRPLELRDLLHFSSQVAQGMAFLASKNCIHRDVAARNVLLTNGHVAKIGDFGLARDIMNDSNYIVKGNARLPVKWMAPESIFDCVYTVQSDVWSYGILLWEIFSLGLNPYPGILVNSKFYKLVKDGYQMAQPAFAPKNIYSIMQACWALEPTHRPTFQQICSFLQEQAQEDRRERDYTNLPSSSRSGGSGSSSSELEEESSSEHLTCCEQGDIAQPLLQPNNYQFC
Outline: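 Unphosphorylated FMS (10 nM) with polyE4Y 1 mg/mL and 500 μM ATP in 90 mM Tris pH 7.5, 10 mM MgCl2, 0.2% octyl-glucoside, 1% DMSO. ADP formation was coupled via pyruvate kinase/LDH to NADH oxidation, followed at A340 for 4 h at 30° C.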

[6] = molecular target: KDR kinase (Homo sapiens (Human), UniProt P35968); assay: KDR kinase inhibition (Table 4); assay type: biochemical
Chain of KDR kinase (P35968 20-1356): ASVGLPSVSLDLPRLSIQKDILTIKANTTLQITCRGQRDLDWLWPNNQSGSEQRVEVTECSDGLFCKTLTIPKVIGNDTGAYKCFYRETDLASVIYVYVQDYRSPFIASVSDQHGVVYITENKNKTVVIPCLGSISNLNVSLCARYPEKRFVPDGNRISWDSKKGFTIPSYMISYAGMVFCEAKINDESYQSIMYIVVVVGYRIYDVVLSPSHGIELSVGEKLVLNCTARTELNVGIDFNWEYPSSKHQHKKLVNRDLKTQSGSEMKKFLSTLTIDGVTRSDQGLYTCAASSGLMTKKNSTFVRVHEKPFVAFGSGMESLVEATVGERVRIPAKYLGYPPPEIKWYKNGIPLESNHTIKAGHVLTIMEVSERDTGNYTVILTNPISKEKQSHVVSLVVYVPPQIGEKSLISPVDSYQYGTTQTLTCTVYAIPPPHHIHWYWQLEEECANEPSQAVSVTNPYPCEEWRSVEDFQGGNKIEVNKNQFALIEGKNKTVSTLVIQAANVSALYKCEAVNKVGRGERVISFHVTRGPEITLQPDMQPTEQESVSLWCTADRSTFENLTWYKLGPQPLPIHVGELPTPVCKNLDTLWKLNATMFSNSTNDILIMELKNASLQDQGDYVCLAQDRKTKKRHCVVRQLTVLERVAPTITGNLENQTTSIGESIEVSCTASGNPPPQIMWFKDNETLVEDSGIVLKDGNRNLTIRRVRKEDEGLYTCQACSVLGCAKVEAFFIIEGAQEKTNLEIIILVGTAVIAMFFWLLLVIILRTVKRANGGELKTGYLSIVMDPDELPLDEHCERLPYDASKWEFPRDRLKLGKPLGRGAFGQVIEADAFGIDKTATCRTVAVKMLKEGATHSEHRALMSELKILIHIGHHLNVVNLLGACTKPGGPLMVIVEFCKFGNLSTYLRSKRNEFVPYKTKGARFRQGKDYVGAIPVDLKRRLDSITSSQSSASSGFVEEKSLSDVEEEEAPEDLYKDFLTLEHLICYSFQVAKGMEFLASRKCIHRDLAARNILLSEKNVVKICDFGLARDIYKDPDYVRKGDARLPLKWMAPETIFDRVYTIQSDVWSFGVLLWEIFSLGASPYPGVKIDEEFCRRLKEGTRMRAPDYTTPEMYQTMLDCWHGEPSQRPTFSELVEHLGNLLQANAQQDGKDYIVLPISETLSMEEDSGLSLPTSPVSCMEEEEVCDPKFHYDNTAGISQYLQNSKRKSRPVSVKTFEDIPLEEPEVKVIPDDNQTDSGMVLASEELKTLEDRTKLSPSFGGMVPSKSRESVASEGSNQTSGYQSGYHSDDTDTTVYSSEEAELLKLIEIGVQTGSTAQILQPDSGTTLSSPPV

[7] = molecular target: cMET kinase (Homo sapiens (Human), UniProt P08581); assay: cMET kinase inhibition (Table 4); assay type: biochemical
[8] = molecular target: unphosphorylated c-KIT kinase (uKIT, Seq. ID no. 2) (Homo sapiens (Human), UniProt P10721); assay: uKit kinase assay (coupled pyruvate kinase/lactate dehydrogenase); assay type: biochemical; conditions: enzymatic assay, ATP 2000 μM
Chain of unphosphorylated c-KIT kinase (uKIT, Seq. ID no. 2) (P10721 other isoform, or with tags, fused parts or gaps): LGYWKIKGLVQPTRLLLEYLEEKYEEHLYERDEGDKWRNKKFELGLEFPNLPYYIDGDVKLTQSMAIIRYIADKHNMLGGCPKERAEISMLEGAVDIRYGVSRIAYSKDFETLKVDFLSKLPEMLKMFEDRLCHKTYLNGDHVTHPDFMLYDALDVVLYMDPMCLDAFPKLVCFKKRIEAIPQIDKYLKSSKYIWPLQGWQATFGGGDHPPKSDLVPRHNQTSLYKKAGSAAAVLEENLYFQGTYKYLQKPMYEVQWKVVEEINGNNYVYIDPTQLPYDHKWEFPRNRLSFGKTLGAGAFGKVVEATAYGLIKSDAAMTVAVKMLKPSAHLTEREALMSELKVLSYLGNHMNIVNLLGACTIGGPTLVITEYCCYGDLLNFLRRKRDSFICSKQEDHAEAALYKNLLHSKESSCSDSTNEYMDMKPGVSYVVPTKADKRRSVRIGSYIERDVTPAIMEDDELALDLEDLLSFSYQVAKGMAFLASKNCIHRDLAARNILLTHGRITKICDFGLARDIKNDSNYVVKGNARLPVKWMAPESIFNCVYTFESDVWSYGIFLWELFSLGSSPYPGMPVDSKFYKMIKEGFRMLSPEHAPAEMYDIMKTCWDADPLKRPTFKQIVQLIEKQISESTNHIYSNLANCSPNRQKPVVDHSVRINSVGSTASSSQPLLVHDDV
Outline: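 The read-out was a continuous PK/LDH-coupled decrease in NADH absorbance at 340 nm, monitored at 30 °C over 4 h. IC50 came from % inhibition based on rates at 3–4 h. The GST-tagged unphosphorylated KIT (12 nM) was used with polyE4Y substrate, 2000 μM ATP and 10 mM Mg2+ at pH 7.5, with serially diluted compound.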

[9] = uFMS, enzymatic assay, ATP 500 μM
[10] = 4 h compound, M-CSF stimulation 5 min, read-out: pFMS inhibition in THP-1 cells
[11] = enzymatic assay, ATP 500 μM, read-out: uFMS

SMILES	IC50 [1]	IC50 [2]	IC50 [3]	IC50 [4]	IC50 [5, 9]	IC50 [6]	IC50 [4, 10]	IC50 ([5]; Table 4, read-out: c-FMS IC50)	IC50 [5, 11]	IC50 [7]	IC50 [8]
O=C(Nc1ccc(Oc2ccnc(-c3cn[nH]c3)c2)cn1)N1CCN(C2CCOCC2)C1=O [Example 5, N-(5-((2-(1H-pyrazol-4-yl)pyridin-4-yl)oxy)pyridin-2-yl)-2-oxo-3-(tetrahydro-2H-pyran-4-yl)imidazolidine-1-carboxamide]	0.1 to 1 µM	0.01 to 0.1 µM	0.01 to 0.1 µM	0.1 to 1 µM	0.01 to 0.1 µM						
Cn1cc(-c2cc(Oc3ccc(NC(=O)N4CCN(C5CCCCC5)C4=O)nc3)ccn2)cn1 [Example 15, 3-cyclohexyl-N-(5-((2-(1-methyl-1H-pyrazol-4-yl)pyridin-4-yl)oxy)pyridin-2-yl)-2-oxoimidazolidine-1-carboxamide]	0.01 to 0.1 µM	< 0.01 µM	< 0.01 µM			0.67 µM	0.01 to 0.1 µM	0.003 µM	< 0.01 µM	0.37 µM	
Cc1nc(NC(=O)N2CCN(C3CCOC3)C2=O)ccc1Oc1ccnc(-c2cnn(C)c2)c1 (stereo in doubt) [Example 23, (S)—N-(6-methyl-5-((2-(1-methyl-1H-pyrazol-4-yl)pyridin-4-yl)oxy)pyridin-2-yl)-2-oxo-3-(tetrahydrofuran-3-yl)imidazolidine-1-carboxamide]	> 1 µM	0.01 to 0.1 µM	0.01 to 0.1 µM	0.01 to 0.1 µM	0.01 to 0.1 µM						> 1 µM
CNC(=O)c1cc(Oc2ccc(NC(=O)N3CCN(C(C)(C)C)C3=O)nc2)ccn1 [Example 90, 4-((6-(3-(tert-butyl)-2-oxoimidazolidine-1-carboxamido)pyridin-3-yl)oxy)-N-methylpicolinamide]	0.01 to 0.1 µM	0.01 to 0.1 µM	0.01 to 0.1 µM			3.3 µM		0.005 µM	< 0.01 µM	> 5 µM	0.01 to 0.1 µM
Cc1cc(-c2cc(Oc3ccc(NC(=O)N4CCN(C5CCOCC5)C4=O)nc3C)ccn2)on1 [Example 14, N-(6-methyl-5-((2-(3-methylisoxazol-5-yl)pyridin-4-yl)oxy)pyridin-2-yl)-2-oxo-3-(tetrahydro-2H-pyran-4-yl)imidazolidine-1-carboxamide]	> 1 µM	0.1 to 1 µM	0.01 to 0.1 µM				0.1 to 1 µM		0.01 to 0.1 µM		
[2H]C([2H])([2H])n1cc(-c2cc(Oc3ccc(NC(=O)N4CCN([C@@H]5CCOC5)C4=O)nc3C)ccn2)cn1 [Example 37, (R)—N-(6-methyl-5-((2-(1-(trideuteromethyl)-1H-pyrazol-4-yl)pyridin-4-yl)oxy)pyridin-2-yl)-2-oxo-3-(tetrahydrofuran-3-yl)imidazolidine-1-carboxamide]	> 1 µM	0.01 to 0.1 µM	0.01 to 0.1 µM	0.01 to 0.1 µM	0.01 to 0.1 µM						0.1 to 1 µM
Cn1cc(-c2cc(Oc3cc(F)c(NC(=O)N4CCN(C5CCOCC5)C4=O)cc3F)ccn2)cn1 [Example 91, N-(2,5-difluoro-4-((2-(1-methyl-1H-pyrazol-4-yl)pyridin-4-yl)oxy)phenyl)-2-oxo-3-(tetrahydro-2H-pyran-4-yl)imidazolidine-1-carboxamide]		0.01 to 0.1 µM	0.01 to 0.1 µM			> 3.3 µM	0.01 to 0.1 µM	0.007 µM	< 0.01 µM	> 5 µM	0.1 to 1 µM
CN(C)C(=O)Nc1cc(Oc2cc(F)c(NC(=O)N3CCN(C4CCOCC4)C3=O)cc2Cl)ccn1 [Example 101, N-(5-chloro-4-((2-(3,3-dimethylureido)pyridin-4-yl)oxy)-2-fluorophenyl)-2-oxo-3-(tetrahydro-2H-pyran-4-yl)imidazolidine-1-carboxamide]	0.1 to 1 µM	0.01 to 0.1 µM	< 0.01 µM			> 3.3 µM	0.01 to 0.1 µM	0.008 µM	< 0.01 µM	4 µM	
